Results taken from PMC11541572, “Nucleotidyltransferase toxin MenT extends aminoacyl acceptor ends of serine tRNAs to control Mycobacterium tuberculosis growth” (Nature Communications, 2024).

Tests used:
[1] = biological target: PcnA (Mycobacterium tuberculosis, UniProt L7N672)
[2] = biological target: T1, MenT1 (Mycobacterium tuberculosis, UniProt L7N686)
T1 construct: gene Rv0078A

[3] = biological target: T2, MenT3 (Mycobacterium tuberculosis, UniProt P96356)
T2 construct: gene Rv1045
T2 sequence (P96356 1-293): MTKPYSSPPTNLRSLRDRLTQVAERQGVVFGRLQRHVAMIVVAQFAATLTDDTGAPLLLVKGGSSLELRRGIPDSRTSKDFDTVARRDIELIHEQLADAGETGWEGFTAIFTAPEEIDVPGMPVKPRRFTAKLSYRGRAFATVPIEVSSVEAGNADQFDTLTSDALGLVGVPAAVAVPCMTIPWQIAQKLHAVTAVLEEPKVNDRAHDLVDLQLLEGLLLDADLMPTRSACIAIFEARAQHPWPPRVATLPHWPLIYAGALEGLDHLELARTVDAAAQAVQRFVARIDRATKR

T1 sequence (L7N686 1-197): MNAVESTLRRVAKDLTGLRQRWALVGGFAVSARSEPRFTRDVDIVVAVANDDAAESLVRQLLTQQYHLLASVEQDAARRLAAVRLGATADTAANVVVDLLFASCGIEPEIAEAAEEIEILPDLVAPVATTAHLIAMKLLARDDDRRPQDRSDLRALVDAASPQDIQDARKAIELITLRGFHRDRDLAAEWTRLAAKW
Sequence of PcnA (L7N672 entry or part of it): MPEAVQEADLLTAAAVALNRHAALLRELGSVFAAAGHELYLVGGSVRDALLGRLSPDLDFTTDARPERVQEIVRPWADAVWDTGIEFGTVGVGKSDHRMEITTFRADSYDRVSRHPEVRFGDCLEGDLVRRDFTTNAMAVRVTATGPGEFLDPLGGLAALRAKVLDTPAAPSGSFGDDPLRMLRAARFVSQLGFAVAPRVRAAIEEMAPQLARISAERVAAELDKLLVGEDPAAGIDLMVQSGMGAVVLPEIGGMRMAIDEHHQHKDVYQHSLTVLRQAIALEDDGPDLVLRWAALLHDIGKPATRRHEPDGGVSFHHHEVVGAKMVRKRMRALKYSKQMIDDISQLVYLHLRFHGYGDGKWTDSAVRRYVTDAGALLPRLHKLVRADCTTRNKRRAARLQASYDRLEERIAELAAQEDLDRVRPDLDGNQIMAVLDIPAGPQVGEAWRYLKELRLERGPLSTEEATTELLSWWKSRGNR

Compound: O=P(O)(O)OP(=O)(O)O [inorganic pyrophosphate]
- pyrophosphorolysis of labelled tRNA, urea-PAGE autoradiography [1]: PcnA is indeed capable of generating truncated tRNA^Ser-4ΔA and ΔCA from MenT3-modified tRNA

Compound: Nc1ccn([C@@H]2O[C@H](COP(=O)(O)OP(=O)(O)OP(=O)(O)O)[C@@H](O)[C@H]2O)c(=O)n1 [CTP]
- transfer of alpha-32P nucleotide to tRNA, urea-PAGE autoradiography [2]: in the presence of α-32P labeled CTP for MenT1 and MenT3
- transfer of alpha-32P nucleotide to tRNA, urea-PAGE autoradiography [3]: CTP is by far the preferred nucleotide substrate of MenT3 in vitro
